Positions count from the first letter of the chain named. Values joined by “and” are separate entries in the source; they are usually repeats but may differ in a detail not shown here. Equal values may be shown once. “Also recorded” adds a separate entry of the source. Read-outs that look alike come from different tables or passages of the source.
How the values were obtained:
∆-hDAT = ∆-hDAT (Homo sapiens, UniProt Q01959, I248Y); conditions: 10 µM MRS7292, [3H]DA 0.185 uM, background not subtracted
∆-hDAT, sequence (Q01959 57-620 I248Y limits assumed): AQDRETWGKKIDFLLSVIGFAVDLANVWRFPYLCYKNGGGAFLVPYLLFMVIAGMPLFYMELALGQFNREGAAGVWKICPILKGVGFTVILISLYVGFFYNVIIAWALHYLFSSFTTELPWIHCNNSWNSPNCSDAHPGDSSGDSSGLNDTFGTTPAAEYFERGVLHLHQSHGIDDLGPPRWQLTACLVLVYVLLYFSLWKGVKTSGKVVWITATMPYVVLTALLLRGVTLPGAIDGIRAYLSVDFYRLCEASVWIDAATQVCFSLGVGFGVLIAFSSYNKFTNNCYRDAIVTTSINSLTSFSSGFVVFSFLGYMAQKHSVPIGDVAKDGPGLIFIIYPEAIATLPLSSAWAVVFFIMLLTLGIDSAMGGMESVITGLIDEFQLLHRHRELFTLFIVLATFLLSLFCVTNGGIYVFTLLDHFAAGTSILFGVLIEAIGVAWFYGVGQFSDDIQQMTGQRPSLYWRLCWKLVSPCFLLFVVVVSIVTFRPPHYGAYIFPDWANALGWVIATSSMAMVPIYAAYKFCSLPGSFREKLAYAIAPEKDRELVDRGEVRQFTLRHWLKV

full-length hDAT = full-length hDAT (Homo sapiens, UniProt Q01959); conditions: background not subtracted
full-length hDAT, sequence (Q01959 whole entry): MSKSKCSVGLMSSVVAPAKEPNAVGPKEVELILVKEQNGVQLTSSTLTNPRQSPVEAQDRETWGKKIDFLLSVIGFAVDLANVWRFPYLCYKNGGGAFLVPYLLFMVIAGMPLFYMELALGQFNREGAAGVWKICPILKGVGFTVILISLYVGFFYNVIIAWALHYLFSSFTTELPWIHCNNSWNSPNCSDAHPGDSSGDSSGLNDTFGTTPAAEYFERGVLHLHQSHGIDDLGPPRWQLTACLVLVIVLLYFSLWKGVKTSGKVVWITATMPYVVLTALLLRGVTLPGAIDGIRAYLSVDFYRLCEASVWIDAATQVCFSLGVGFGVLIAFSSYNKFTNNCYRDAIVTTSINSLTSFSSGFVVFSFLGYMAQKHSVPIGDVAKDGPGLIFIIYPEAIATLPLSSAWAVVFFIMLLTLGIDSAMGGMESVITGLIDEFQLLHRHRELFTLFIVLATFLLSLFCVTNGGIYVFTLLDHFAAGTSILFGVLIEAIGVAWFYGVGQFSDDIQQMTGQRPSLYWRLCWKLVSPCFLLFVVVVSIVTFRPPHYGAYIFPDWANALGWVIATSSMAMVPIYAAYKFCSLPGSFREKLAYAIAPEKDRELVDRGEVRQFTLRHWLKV

∆-hDAT W84A = biological target: T1, ∆-hDAT W84A (Homo sapiens, UniProt Q01959, I248Y/W84A); conditions: for W84A total (raw [3H]dopamine uptake counts): Extended Data Fig 7c source data, replicates 1-3
T1 sequence (Q01959 57-620 W84A/I248Y limits assumed): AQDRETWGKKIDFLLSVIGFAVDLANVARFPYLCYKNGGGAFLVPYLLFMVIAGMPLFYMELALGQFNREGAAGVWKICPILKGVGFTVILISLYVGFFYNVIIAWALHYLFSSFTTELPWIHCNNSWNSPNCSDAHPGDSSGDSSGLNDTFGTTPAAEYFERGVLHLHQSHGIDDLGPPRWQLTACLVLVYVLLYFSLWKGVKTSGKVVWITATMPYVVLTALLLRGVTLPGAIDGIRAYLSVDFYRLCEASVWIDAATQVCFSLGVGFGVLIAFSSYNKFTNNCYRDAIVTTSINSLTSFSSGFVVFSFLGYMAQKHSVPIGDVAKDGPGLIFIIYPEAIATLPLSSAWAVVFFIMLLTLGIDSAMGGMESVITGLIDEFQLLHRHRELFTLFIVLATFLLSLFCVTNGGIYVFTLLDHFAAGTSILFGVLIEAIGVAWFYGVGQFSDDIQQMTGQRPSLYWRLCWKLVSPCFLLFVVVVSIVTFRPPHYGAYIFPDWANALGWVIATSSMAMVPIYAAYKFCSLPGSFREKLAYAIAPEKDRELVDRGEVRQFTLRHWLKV

∆-hDAT W84C = biological target: T2, ∆-hDAT W84C (Homo sapiens, UniProt Q01959, I248Y/W84C); conditions: for W84C total (raw [3H]dopamine uptake counts): Extended Data Fig 7c source data, replicates 1-3
T2 sequence (Q01959 57-620 W84C/I248Y limits assumed): T1 sequence (Q01959 57-620 W84A/I248Y limits assumed) with A28C

∆-hDAT D385A = ∆-hDAT D385A (Homo sapiens, UniProt Q01959, D385A/I248Y); conditions: MRS7292 30 µM; [3H]dopamine uptake, Figure 2d raw data
∆-hDAT D385A, sequence (Q01959 57-620 I248Y/D385A limits assumed): as the sequence (Q01959 57-620 I248Y limits assumed) above, with D329A counted along it

∆-hDAT D385N = ∆-hDAT D385N (Homo sapiens, UniProt Q01959, D385N/I248Y); conditions: D385N versus ∆-hDAT
∆-hDAT D385N, sequence (Q01959 57-620 I248Y/D385N limits assumed): as the sequence (Q01959 57-620 I248Y limits assumed) above, with D329N counted along it

∆-hDAT V364I = ∆-hDAT V364I (Homo sapiens, UniProt Q01959, I248Y/V364I); conditions: [3H]dopamine uptake, Figure 2d raw data
∆-hDAT V364I, sequence (Q01959 57-620 I248Y/V364I limits assumed): as the sequence (Q01959 57-620 I248Y limits assumed) above, with V308I counted along it

∆-hDAT Y394F = ∆-hDAT Y394F (Homo sapiens, UniProt Q01959, I248Y/Y394F); conditions: for Y394F total (raw [3H]dopamine uptake counts): Extended Data Fig 7c source data, replicates 1-3
∆-hDAT Y394F, sequence (Q01959 57-620 I248Y/Y394F limits assumed): as the sequence (Q01959 57-620 I248Y limits assumed) above, with Y338F counted along it

∆-hDAT I390L = ∆-hDAT I390L (Homo sapiens, UniProt Q01959, I248Y/I390L); conditions: [3H]dopamine uptake
∆-hDAT I390L, sequence (Q01959 57-620 I248Y/I390L limits assumed): as the sequence (Q01959 57-620 I248Y limits assumed) above, with I334L counted along it

∆-hDAT V364I/I390L = ∆-hDAT V364I/I390L (Homo sapiens, UniProt Q01959, I248Y/I390L/V364I); conditions: MRS7292 10 µM; [3H]dopamine uptake, Figure 2d raw data
∆-hDAT V364I/I390L, sequence (Q01959 57-620 I248Y/V364I/I390L limits assumed): as the sequence (Q01959 57-620 I248Y limits assumed) above, with V308I, I334L counted along it

With `CNc1nc(C#Cc2ccc(Cl)s2)nc2c1ncn2[C@H]1[C@H](O)[C@H](O)[C@]2(C(=O)OC)C[C@H]12` [MRS7292] the “[3H]DA Uptake - Δ-hDAT, total counts - 10 µM MRS7292” value (∆-hDAT) was 20 cpm and 17 cpm and 15 cpm and 19 cpm and 12 cpm and 22 cpm, the “[3H]DA Uptake - Full length hDAT, total counts - 10 µM MRS7292” value (“[3H]DA Uptake - Full length hDAT” for short) (full-length hDAT; 10 µM MRS7292, [3H]DA 0.0068 uM) was 10 cpm and 11 cpm and 8 cpm and 14 cpm and 9 cpm and 16 cpm and the “[3H]DA Uptake - Full length hDAT” value (full-length hDAT; 10 µM MRS7292, [3H]DA 0.061 uM) was 13 cpm and 18 cpm and 14 cpm and 10 cpm and 16 cpm and 15 cpm and 19 cpm and 17 cpm. For the same compound, the “[3H]DA Uptake - Full length hDAT” value (full-length hDAT; 10 µM MRS7292, [3H]DA 0.185 uM) was 25 cpm and 15 cpm and 20 cpm and 27 cpm and 21 cpm and 23 cpm and 22 cpm, the “[3H]DA Uptake - Full length hDAT” value (full-length hDAT; 10 µM MRS7292, [3H]DA 1.66 uM) was 65 cpm and 83 cpm and 90 cpm and 75 cpm and 88 cpm and 55 cpm and 51 cpm and 66 cpm and the “W84A total (raw [3H]dopamine uptake counts)” value (from here on “W84A total”) (∆-hDAT W84A; MRS7292 1e-6 µM) was 4895 and 4792 and 4802 and 4600 and 4953 and 4373 and 5070 and 4982 and 5054. The “W84A total” value (∆-hDAT W84A; MRS7292 0.041 µM) was 4749 and 4230 and 4559 and 4747 and 4675 and 5103 and 5266 and 5201 and 5101, the “W84A total” value (∆-hDAT W84A; MRS7292 0.123 µM) was 4930 and 5121 and 4987 and 4751 and 4624 and 4813 and 5010 and 4838 and 4937 and the “W84A total” value (∆-hDAT W84A; MRS7292 0.37 µM) was 4894 and 4668 and 4952 and 4517 and 4587 and 4491 and 5700 and 5202 and 4820. For the same compound, the “W84A total” value (∆-hDAT W84A; MRS7292 1.11 µM) was 4984 and 5198 and 4980 and 4949 and 4430 and 4563 and 5130 and 4679 and 4795, the “W84A total” value (∆-hDAT W84A; MRS7292 3.33 µM) was 4301 and 4523 and 4569 and 4697 and 4581 and 4993 and 4757 and 5251 and 4774 and the “W84A total” value (∆-hDAT W84A; MRS7292 10 µM) was 4768 and 4277 and 4629 and 4852 and 4916 and 4947 and 5164 and 4713 and 5124. For the same compound, the “W84A total” value (∆-hDAT W84A; MRS7292 30 µM) was 3395 and 3824 and 4400 and 4392 and 4159 and 3949 and 4924 and 4868 and 4552, the “effect of mutation on potency of MRS7292 (inhibition of dopamine uptake)” value (shortened to “effect … (inhibition of dopamine uptake)”) (∆-hDAT W84A; W84A versus ∆-hDAT) was “severely compromises the potency; also recorded: severe loss of MRS7292 activity” and the “W84C total (raw [3H]dopamine uptake counts)” value (“W84C total” for short) (∆-hDAT W84C; MRS7292 1e-6 µM) was 4594 and 4467 and 4710 and 3850 and 4193 and 4029 and 4760 and 5939 and 5408. For the same compound, the “W84C total” value (∆-hDAT W84C; MRS7292 0.041 µM) was 5542 and 4901 and 4879 and 3714 and 3791 and 3749 and 5161 and 5312 and 5150, the “W84C total” value (∆-hDAT W84C; MRS7292 0.123 µM) was 5015 and 4917 and 5068 and 3749 and 3676 and 3489 and 6082 and 6141 and 5806 and the “W84C total” value (∆-hDAT W84C; MRS7292 0.37 µM) was 4864 and 5475 and 5004 and 3395 and 4058 and 4217 and 6996 and 6040 and 6103. The “W84C total” value (∆-hDAT W84C; MRS7292 1.11 µM) was 4560 and 4192 and 4804 and 2868 and 3597 and 3884 and 6157 and 6005, the “W84C total” value (∆-hDAT W84C; MRS7292 3.33 µM) was 5290 and 5001 and 5041 and 3941 and 4001 and 3991 and 5807 and 6342 and 6018 and the “W84C total” value (∆-hDAT W84C; MRS7292 10 µM) was 5439 and 5725 and 4868 and 3830 and 4200 and 4303 and 5849 and 6416 and 6207. The “W84C total” value (∆-hDAT W84C; MRS7292 30 µM) was 4716 and 4588 and 4467 and 3448 and 3565 and 3579 and 4954 and 3057 and 4610, the “effect … (inhibition of dopamine uptake)” value (∆-hDAT W84C; W84C versus ∆-hDAT) was “severely compromises the potency; also recorded: severe loss of MRS7292 activity” and the D385A total (∆-hDAT D385A) was 286 and 316 and 337 and 362 and 408 and 403 and 257 and 320. The “effect … (inhibition of dopamine uptake)” value (∆-hDAT D385N) was “retained potency; also recorded: potency of MRS7292 was maintained; also recorded: little effect”, the V364I total (∆-hDAT V364I; MRS7292 1e-6 µM) was 5751 and 5593 and 5760 and 5223 and 5698 and 5483 and 5457 and 5433 and the V364I total (∆-hDAT V364I; MRS7292 10 µM) was 65 and 56 and 61 and 57 and 59 and 73 and 84 and 89. The V364I total (∆-hDAT V364I; MRS7292 30 µM) was 24 and 25 and 29 and 37 and 23 and 36 and 26, the “Y394F total (raw [3H]dopamine uptake counts)” value (shortened to “Y394F total”) (∆-hDAT Y394F; MRS7292 1e-6 µM) was 1962 and 2141 and 2109 and 2218 and 1876 and 2149 and 2315 and 2380 and 2515 and the “Y394F total” value (∆-hDAT Y394F; MRS7292 0.041 µM) was 2021 and 1947 and 2451 and 1672 and 1475 and 1990 and 5167 and 4746. For the same compound, the “Y394F total” value (∆-hDAT Y394F; MRS7292 0.123 µM) was 2135 and 2187 and 2249 and 1538 and 1496 and 1463 and 3048 and 2825 and 2648, the “Y394F total” value (∆-hDAT Y394F; MRS7292 0.37 µM) was 2258 and 2255 and 2215 and 1771 and 1434 and 1467 and 2327 and 2753 and 2672 and the “Y394F total” value (∆-hDAT Y394F; MRS7292 1.11 µM) was 1683 and 2000 and 1961 and 1802 and 1518 and 1933 and 2789 and 2557 and 2651. The “Y394F total” value (∆-hDAT Y394F; MRS7292 3.33 µM) was 2058 and 2080 and 2545 and 1969 and 2086 and 2231 and 2762 and 2184 and 1914, the “Y394F total” value (∆-hDAT Y394F; MRS7292 10 µM) was 2191 and 2728 and 2379 and 1871 and 1698 and 1883 and 2721 and 2825 and 2576 and the “Y394F total” value (∆-hDAT Y394F; MRS7292 30 µM) was 1926 and 2280 and 2146 and 1689 and 1287 and 1345 and 2421 and 2231 and 2505. For the same compound, the “effect … (inhibition of dopamine uptake)” value (∆-hDAT Y394F; Y394F versus ∆-hDAT) was “diminishes the potency; also recorded: severe loss of MRS7292 activity”, the “change in IC50 of MRS7292 versus ∆-hDAT” value (∆-hDAT I390L; I390L mutant) was “modest increase in the IC50 value; also recorded: increased IC50” and the I390L total counts (∆-hDAT I390L; MRS7292 30 µM, Figure 2d raw data) was 109 counts and 108 counts and 83 counts and 89 counts and 68 counts and 75 counts and 87 counts and 88 counts. The I390L-V364I total (∆-hDAT V364I/I390L) was 85 and 69 and 75 and 62 and 48 and 60 and 76 and 66.

Source: article PMC11324517 (Nature, 2024)
